Measured values published in patent US8460906B2, “Immobilized product tolerant microorganisms” (Cobalt Technologies, Inc., priority 2008, dated 2013).
Like-named read-outs stand apart in the source and are kept apart here.

Tests used:
[1] = test system: mutants of C. saccharobutylicum strain Co-7449; conditions: suspension culture, colonies from 5% butanol RCM plates
[2] = test system: environmental sample (isolate)
Protocol: An environmental sample (isolate) is obtained. The isolate is plated on a set of identical plates containing a nutrient agar.

Co-5673 [3] = conditions: solid media P2+4% Xylose
Protocol: (§1) On the first day, a seed train of a strain to be investigated was started in 5 ml cultures of P2+4% Xylose in the anaerobic hood. A 1-L volume of sterile P2 medium containing 4% Xylose and agar was prepared and place on hot plate. […] The solution was mixed well and plates were poured in a sterile environment. After the plates were solidified, they were transferred to the anaerobic hood and parafilmed immediately prior to storage overnight.
(§2) The next day, the OD600 of the seed train tubes was measured. […] Control tubes without inoculum were also prepared. Tubes were incubated in an anaerobic hood.
(§3) After 1 day and 3-4 days, the OD600 of liquid cultures was measured. Plates were examined for growth. […] OD600 at start (0 hr) was based on a 1:20 inoculation of the starter cultures.

Co-0124 [4] = conditions: solid media P2+4% Xylose
Protocol: as §1, §2, §3

Co-5673 [5] = conditions: liquid P2+4% Xylose, 24 and 96 hr time points
Protocol: as §2, §3

Co-7449 = conditions: liquid P2+4% Xylose, 24 and 96 hr time points
Protocol: as §2, §3

Co-0124 [6] = conditions: liquid P2+4% Xylose, 24 and 96 hr time points
Protocol: as §2, §3

[7] = test system: mutants of C. saccharobutylicum strain Co-7449
Protocol: (§4) In some embodiments, solvent tolerant microorganisms are mutagenized and selected for increased solvent tolerance on solid support. In some embodiments, solvent tolerant mutants can be used for either solvent or organic acid production. […] In some embodiments of the present invention, solvent tolerance is a relative value that is measured by comparing the growth ability of a mutant microorganism on a semi-solid or solid support to the growth ability of the non-mutant parent microorganism on the same semi-solid or solid support. Typically, the semi-solid or solid support comprises a growth media and a specified concentration of a solvent that is usually measured on a volume to volume (v/v) basis. Generally, multiple containers, usually petri dishes, are filled with semi-solid or solid support representing a range of solvent concentration. […] The highest concentration at which colonies still form represents the solvent tolerance of the microorganism. An alternative solvent tolerance test method is to overlay the non-solvent support with a solution containing a specified concentration of a solvent.
Clostridium saccharobutylicum strain Co-7449 was grown in yeast extract medium (YEM) to an approximate OD600 of 3 and was treated with a final concentration of 50 μg/ml N-methyl-N′-nitro-N-nitrosoguanidine (MNNG) for 15 minutes. Cells were twice washed with glucose-free YEM and plated on Reinforced Clostridium Medium (RCM) at 10^−3 and 10^−4 dilution to recover 3000-4000 colonies.

[8] = test system: Clostridium saccharobutylicum strain Co-7449; conditions: for highest butanol concentration of plates showing growth: solid media P2+4% Xylose
Protocol: as §4, §1, §2, §3

In the case of butanol, the “growth in YEM with 1.2% butanol added to the broth” value [1] is reported as “did not grow”, the “butanol concentration the adapted strain grows in” value ([2]; after 20 passages on solid support with increasing butanol) is reported as 2.5% and the “highest butanol concentration of plates with colonies” value ([2]; unadapted isolate, no growth at 1.8% or 2.0%) is reported as 1.6%. For the same substance, the “highest butanol concentration of plates showing growth” value (Co-5673 [3]; 24 hour) was 2.2%, the “highest butanol concentration of plates showing growth” value (Co-5673 [3]; 96 hour) was 2.2% and the “highest butanol concentration of plates showing growth” value (Co-0124 [4]; 24 hour) was 2.2%. For the same substance, the “highest butanol concentration of plates showing growth” value (Co-0124 [4]; 96 hour) was 2.3%, the “highest butanol concentration at which OD600 increased” value (Co-5673 [5]) was 1.4 % (v/v) and the “highest butanol concentration at which OD600 increased” value (Co-7449) was 1.4 % (v/v). The “highest butanol concentration at which OD600 increased” value (Co-0124 [6]) was 1.6 % (v/v), the “tolerance for butanol compared to the parent Co-7449 strain” value ([7]; mutants grown on a solid support) was “at least a two-fold higher tolerance” and the “growth on 5% butanol plates after culture in YEM without butanol” value ([7]; samples removed from liquid YEM, plated on 5% butanol plates) was “failed to grow”. The “relative solvent tolerance of the mutants versus non-mutant parent strain” value ([7]; {}) was “at least 225%”, the “butanol tolerance result on solid media” value ([8]; 24 hr, separate experiment) was 2.1% and the “highest butanol concentration of plates showing growth” value ([8]; 24 hour) was 0%. The “highest butanol concentration of plates showing growth” value ([8]; 96 hour) was 2.2%.
